From PMC5734604 (Journal of Medicinal Chemistry, 2017)
“Also recorded” adds a separate entry of the source.

Legend:
[1] = target: T1, human CB1 receptor (Homo sapiens, UniProt P21554); test: biochemical; type: binding; conditions: for residence time: read-out: RT (residence time)
[2] = target: T1, human CB1 receptor; test: [35S]GTPγS binding antagonism assay, hCB1 HEK-293 membranes; type: biochemical; conditions: recombinant human CB1 receptors on HEK-293 cell membranes, 30 °C; SD (n = 2) or SEM (n ≥ 3)
[3] = target: T1, human CB1 receptor; conditions: association at 30 °C
[4] = target: T1, human CB1 receptor

T1 sequence (P21554 whole entry): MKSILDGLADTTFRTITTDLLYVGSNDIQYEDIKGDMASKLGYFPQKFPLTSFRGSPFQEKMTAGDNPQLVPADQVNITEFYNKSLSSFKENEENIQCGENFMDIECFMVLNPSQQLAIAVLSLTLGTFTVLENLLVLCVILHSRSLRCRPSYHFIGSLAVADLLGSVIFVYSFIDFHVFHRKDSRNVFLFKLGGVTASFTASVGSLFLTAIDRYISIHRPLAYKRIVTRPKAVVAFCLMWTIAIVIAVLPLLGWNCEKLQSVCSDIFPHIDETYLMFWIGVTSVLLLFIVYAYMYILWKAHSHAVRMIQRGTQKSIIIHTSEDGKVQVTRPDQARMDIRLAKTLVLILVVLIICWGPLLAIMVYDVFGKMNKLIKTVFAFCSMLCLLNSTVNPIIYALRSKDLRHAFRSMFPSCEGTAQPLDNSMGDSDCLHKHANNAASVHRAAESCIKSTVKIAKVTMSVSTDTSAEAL

SMILES	koff [1] [s⁻¹]	kon [1] [M⁻¹ s⁻¹]	residence time [1] [min]	[35S]GTPγS binding pIC50 ± SD or SEM [2]	further results
CCCS(=O)(=O)Oc1ccc(-n2c(-c3ccc(Cl)cc3Cl)nc(C(=O)NN3CCCCC3)c2C)cc1 [11b, 4-(2-(2,4-Dichlorophenyl)-5-methyl-4-(piperidin-1-ylcarbamoyl)-1H-imidazol-1-yl)phenyl propane-1-sulfonate]	0.00022	300000	78 ± 5	–	–
CCCCS(=O)(=O)Oc1ccc(-n2c(-c3ccc(Cl)cc3Cl)nc(C(=O)NN3CCCCC3)c2C)cc1 [11e, 4-(2-(2,4-Dichlorophenyl)-5-methyl-4-(piperidin-1-ylcarbamoyl)-1H-imidazol-1-yl)phenyl butane-1-sulfonate]	–	–	–	8.9 ± 0.05	–
Cc1c(C(=O)NN2CCCCC2)nc(-c2ccc(Cl)cc2Cl)n1-c1ccc(OS(=O)(=O)CCC(C)C)cc1 [11g, 4-(2-(2,4-Dichlorophenyl)-5-methyl-4-(piperidin-1-ylcarbamoyl)-1H-imidazol-1-yl)phenyl 3-methylbutane-1-sulfonate]	–	–	–	8.9 ± 0.1	–
Cc1c(C(=O)Nc2ccc(F)nc2)nc(-c2ccc(Cl)cc2Cl)n1-c1ccc(OS(=O)(=O)CCC(F)(F)F)cc1 [14f, 4-(2-(2,4-Dichlorophenyl)-4-(6-fluoropyridin-3-ylcarbamoyl)-5-methyl-1H-imidazol-1-yl)phenyl 3,3,3-trifluoropropane-1-sulfonate]	0.00027	720000	62 ± 10	–	–
CCCCCCC(C)(C)c1ccc([C@@H]2C[C@H](O)CC[C@H]2CCCO)c(O)c1 [CP55940]	–	–	–	–	time at which binding approached equilibrium [3]: approximately 25 min
Cc1c(C(=O)Nc2ccc(C(F)(F)F)cn2)nc(-c2ccc(Cl)cc2Cl)n1-c1ccc(OS(=O)(=O)CCC(F)(F)F)cc1 [compound 28, 4-(2-(2,4-Dichlorophenyl)-5-methyl-4-(5-(trifluoromethyl)pyridin-2-ylcarbamoyl)-1H-imidazol-1-yl)phenyl 3,3,3-trifluoropropane-1-sulfonate]	7.8e-05	350000	260 ± 56	–	activity of compound alone (absence of CP55940) [4]: inverse agonism; type of antagonism of CP55940 action [4]: insurmountable antagonism; also recorded: insurmountability
